Experiments:
[1] = Radiochemical stability in human serum and PBS; assay type: in vitro ADME; conditions: 2 h incubation at 37°C
Procedure: (§1) The radiochemical stability was analyzed in both phosphate-buffered saline (PBS) and human serum. After 2 h of incubation at 37°C, an equal volume of CH3CN was added to the samples to precipitate serum proteins. Subsequently, the samples were centrifuged for 5 min at 13,000 rpm. Aliquots of the supernatant and the PBS sample were analyzed via RP-HPLC. In addition, serum samples were run on a Superdex 75 GL 5/150 gel filtration column (GE Healthcare, Munich, Germany) to analyze potential protein binding (PBS pH 7 as eluent).

LNCaP tumor xenografts = assay: Biodistribution in mice bearing LNCaP tumor xenografts; assay type: in vivo, BALB/c nu/nu mice; conditions: 1 h post-injection
Procedure: (§2) Male BALB/c nu/nu mice of 7 to 8 weeks old (Charles River Laboratories, Wilmington, MA, USA) were subcutaneously inoculated into the right trunk with 5 × 10^6 cells of either LNCaP or PC-3 (both in 50% Matrigel; Becton Dickinson, Heidelberg, Germany). The tumors were allowed to grow for 3 to 4 weeks until approximately 1 cm^3 in size. The ^68Ga-radiolabeled compounds were injected into a tail vein (1 to 2 MBq/mouse; 0.1 to 0.2 nmol). At 1 h after injection, the animals were sacrificed. Organs of interest were dissected, blotted dry, and weighed. The radioactivity was measured using a gamma counter and calculated as percentage injected dose per gram (% ID/g).

LNCaP tumor xenograft = assay: Dynamic microPET in mice bearing LNCaP tumor xenografts; assay type: in vivo; conditions: L-isomer versus D-isomer
Procedure: For the microPET studies, 10 to 25 MBq of either [^68Ga]6 or [^68Ga]7 in a volume of 0.15 mL (approximately 0.5 nmol) was injected via a lateral tail vein into mice bearing LNCaP tumor xenografts. The anesthetized animals (2% sevoflurane, Abbott, Wiesbaden, Germany) were placed in prone position into an Inveon small animal PET scanner (Siemens, Knoxville, TN, USA) to perform a 50-min dynamic microPET scan starting at 1 min post-injection followed by a 20-min static scan. All animal experiments complied with the current laws of the Federal Republic of Germany.

PSMA− PC-3 tumor = assay: Biodistribution in PC-3 tumor-bearing mice; assay type: in vivo, BALB/c nu/nu mice; conditions: 1 h post-injection; PSMA− PC-3 tumor-bearing mice
Procedure: as §2, with “At 1 h after injection, the animals were sacrificed.” left out

PSMA− PC-3 cells = assay: Cell binding and internalization in PC-3 cells; assay type: cell-based, human; conditions: 25 nM, 45 min
Procedure: (§3) Internalization experiments were performed as previously described. Briefly, 10^5 LNCaP or PC-3 cells were seeded in poly-L-lysine-coated 24-well cell culture plates 24 h before incubation. After washing with PBS, the cells were incubated with the radiolabeled compounds ^68Ga]6 or ^68Ga]7 (25 nM final concentration) for 45 min at 37°C and at 4°C, respectively. To determine specific cellular uptake, cells were blocked with 2-(phosphonomethyl)-pentanedioic acid (PMPA, Axxora, Loerrach, Germany) to a final concentration of 100 μM. Cellular uptake was terminated by washing four times with 1 mL of ice-cold PBS. To remove surface-bound radioactivity, cells were incubated twice with 0.5 mL glycine-HCl in PBS (50 mM, pH = 2.8) for 5 min. The cells were washed with 1 mL of ice-cold PBS and lysed using 0.3 N NaOH (0.5 mL). The surface-bound and the internalized fractions were measured in a gamma counter.

PSMA+ LNCaP cells = assay: Cell binding and internalization in LNCaP cells; assay type: cell-based, human
Procedure: as §3

LNCaP cells = assay: Cell surface retention (efflux); assay type: cell-based, human; conditions: 2-PMPA added to avoid rebinding, compared to monomer
Procedure: The determination of cell surface retention was performed in accordance to a previously described experiment. Briefly, 5 × 10^6 LNCaP cells in a 320-μL RPMI 1640 medium were incubated with ^68Ga]6 or ^68Ga]7 (25 nM final concentration), respectively, for 45 min at 37°C. Cells were washed three times and resuspended in the RPMI 1640 medium (320 μL); samples were taken as a control for total cell-associated activity (cell surface bound and internalized). Subsequently, 0.5 μL of a 2-PMPA solution (100 mmol/L in DMSO) was added to avoid rebinding and to enhance the competitive pressure on releasing the radioactivity from the cell surface. At indicated time points, 10-μL samples were taken and transferred on top of a 400-μL microcentrifuge tube containing 350 μL of a 75:25 mixture of silicon oil (density 1.05; Aldrich), and mineral oil (density 0.872; Acros, Thermo Fisher Scientific). Subsequently, the tubes were centrifuged at 12,000 rpm for 2 min to separate cellular radioactivity and radioactivity solved in the medium. After freezing in liquid nitrogen, the bottom tips containing the cell pellet were cut off. The cell pellets and the medium were measured in a gamma counter to determine cellular uptake
(1) %uptake=100×cpminpellet/cpminpellet+cpminsupernatant

apo-transferrin = apo-transferrin (Homo sapiens, UniProt P02787); assay: Complex stability against human transferrin / protein binding (size exclusion chromatography); assay type: in vitro ADME; conditions: after incubation in human serum or in the presence of apo-transferrin; 2 h, 37°C
Chain of apo-transferrin (P02787 20-698): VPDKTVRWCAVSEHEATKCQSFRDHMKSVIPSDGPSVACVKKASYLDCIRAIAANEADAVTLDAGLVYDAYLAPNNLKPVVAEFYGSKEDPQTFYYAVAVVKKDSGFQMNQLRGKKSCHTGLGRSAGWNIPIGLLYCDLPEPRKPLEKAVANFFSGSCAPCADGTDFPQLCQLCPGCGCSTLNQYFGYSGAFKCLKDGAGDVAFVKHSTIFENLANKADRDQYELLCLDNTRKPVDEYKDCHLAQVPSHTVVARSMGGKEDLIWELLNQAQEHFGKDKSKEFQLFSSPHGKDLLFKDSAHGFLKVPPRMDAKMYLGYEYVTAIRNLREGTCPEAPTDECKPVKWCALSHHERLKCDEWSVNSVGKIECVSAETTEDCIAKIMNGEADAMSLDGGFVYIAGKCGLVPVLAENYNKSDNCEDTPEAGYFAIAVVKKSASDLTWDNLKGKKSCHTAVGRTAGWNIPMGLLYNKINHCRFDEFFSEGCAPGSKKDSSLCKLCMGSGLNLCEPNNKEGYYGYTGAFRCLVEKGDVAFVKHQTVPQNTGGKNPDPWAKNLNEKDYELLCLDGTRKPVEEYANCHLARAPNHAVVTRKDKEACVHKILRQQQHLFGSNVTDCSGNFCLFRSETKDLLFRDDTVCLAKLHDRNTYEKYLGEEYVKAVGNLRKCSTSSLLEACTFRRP
Procedure: as §1, with “eluent). To analyze the complex stability against human transferrin, a 400-μL aliquot was added to 250 μg of apo-transferrin in PBS at pH 7 and incubated at 37°C (water bath) for 2 h. The complex stability was determined using a Superdex 75 GL 5/150 short column with PBS pH 7 as eluent.” for “eluent).”

[2] = i.v. tail vein, 0.1 to 0.2 nmol

What does the source list for `O=C(O)CC[C@H](NC(=O)N[C@@H](CCCCNC(=O)CCCCCNC(=O)CCc1ccc(O)c(CN(CCN(CC(=O)O)Cc2cc(CCC(=O)NCCCCCC(=O)NCCCC[C@H](NC(=O)N[C@@H](CCC(=O)O)C(=O)O)C(=O)O)ccc2O)CC(=O)O)c1)C(=O)O)C(=O)O` [[^68Ga]7, metal not drawn]?
Intact compound by HPLC analysis [1]: 99%; Enhanced tumor uptake of dimer versus monomer (factor) (LNCaP tumor xenografts; LNCaP tumor): approximately 1.7; Tumor-to-blood ratio (T/B) (LNCaP tumor xenografts; LNCaP tumor): 26.5; Kidney uptake after co-injection of PMPA (LNCaP tumor xenografts; blocked with 2 mg/kg 2-PMPA): 8.29 ± 0.83 % ID/g; Spleen uptake after blocking (LNCaP tumor xenografts; blocked with 2 mg/kg 2-PMPA): 0.67 ± 0.11 % ID/g; Organ distribution, Blood (LNCaP tumor xenografts; [2]): 0.31 ± 0.03 % ID/g; Organ distribution, Brain (LNCaP tumor xenografts; [2]): 0.17 ± 0.01 % ID/g; Organ distribution, Heart (LNCaP tumor xenografts; [2]): 0.90 ± 0.12 % ID/g; Organ distribution, Intestine (LNCaP tumor xenografts; [2]): 0.57 ± 0.14 % ID/g; Organ distribution, Kidney (LNCaP tumor xenografts; [2]): 133.43 ± 18.88 % ID/g; Organ distribution, Liver (LNCaP tumor xenografts; [2]): 1.29 ± 0.11 % ID/g; Organ distribution, Lung (LNCaP tumor xenografts; [2]): 2.25 ± 0.24 % ID/g; Organ distribution, Muscle (LNCaP tumor xenografts; [2]): 0.90 ± 0.01 % ID/g; Organ distribution, Spleen (LNCaP tumor xenografts; [2]): 17.88 ± 4.53 % ID/g; Organ distribution, LNCaP tumor (LNCaP tumor xenografts; n = 5): 8.22 ± 1.78 % ID/g; Tumor time-activity behaviour in dynamic PET (LNCaP tumor xenograft): accumulation in the tumor; Organ distribution, PC-3 tumor (PSMA− PC-3 tumor): 0.93 ± 0.53 % ID/g; Binding to PSMA− PC-3 cells (PSMA− PC-3 cells): no binding; Internalized fraction (PSMA+ LNCaP cells; 25 nM, 45 min): approximately 25%; Cellular uptake (PSMA+ LNCaP cells; 25 nM, 45 min, percentage of applied radioactivity bound to 10^6 cells): 40.04 ± 6.09%; Uptake in the presence of 2-PMPA (PSMA+ LNCaP cells; 100 μM 2-PMPA): blocked; Cell surface retention (efflux experiment) (LNCaP cells): prolonged cell surface retention; Changes in size exclusion chromatography (apo-transferrin): no changes in size exclusion chromatography were detected

Source: PMC3502552, “A dimerized urea-based inhibitor of the prostate-specific membrane antigen for ^68Ga-PET imaging of prostate cancer” (EJNMMI Research, 2012)
